# In US20260062422A1 (Halda Therapeutics OpCo, Inc., priority 2022, published 2026):
# How the values were obtained:
# T47D cells = experiment: Cellular growth inhibition assay for T47D cells, CellTiter-Glo; assay type: cell-based, human; conditions: 72 hours treatment, CellTiter-Glo 2.0 cell viability
# Procedure, shortened: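 Luminescence from CellTiter-Glo 2.0 after 72 h of compound exposure gives the viability signal. Cells grew in insulin-supplemented (0.2 units/mL) DMEM with 10% FBS and were treated one day after seeding at 0.5% DMSO. GI50 values come from four-parameter nonlinear regression.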
# [1] = test system: T-Rex 293 cell line SC3 cells lacking increased expression of androgen receptor protein; experiment: Cellular growth inhibition, T-Rex 293 SC3 cells without doxycycline, CellTiter-Glo; assay type: cell-based; conditions: T-Rex 293 SC3 cells not exposed to doxycycline, CellTiter-Glo 2.0
# Experimental: (§1) The following types of cells were prepared for this experiment: (i) a T-Rex 293 cell line having increased expression of androgen receptor protein due to exposure to doxycycline and (ii) a T-Rex 293 cell line lacking increased expression of androgen receptor protein. Ability of the test compounds to inhibit proliferation of the foregoing cell types was evaluated according to the procedures set forth below.
# (§2) The doxycycline-inducible androgen receptor protein expressing cell line was established using the following protocol: T-Rex 293 cells were purchased from Invitrogen (Cat #R71007) and transfected using Lipofectamine 2000 with the wild-type androgen receptor protein sequence cloned into the pcDNA4/TO vector. Transfected cells were selected using 400 μg/mL Zeocin (Invitrogen Cat #R25001). Following selection, single clones were raised and maintained in Dulbecco's Modified Eagle Medium (DMEM) supplemented with 10% w/w Tetracycline-free fetal bovine serum (FBS) and 250 μg/mL Zeocin. Clones were analyzed for expression of androgen receptor protein in the presence and absence of 10 ng/mL doxycycline (Sigma Cat #D9891), and a single doxycycline-inducible clone (hereinafter “SC3”) was selected for use in downstream assays.
# (§3) The SC3 cells were seeded on poly-D-lysine coated, black clear-bottom 384-well plates at 2500/well, in 25 μL Phenol Red Free Dulbecco's Modified Eagle Medium (DMEM) supplemented with 10% w/w charcoal-dextran treated fetal bovine serum (FBS) and 1% w/w pen-strep, with or without 10 ng/mL doxycycline. Pen-Strep is a commercially available mixture of penicillin G and streptomycin, which is used in mammalian cell culture media to prevent bacterial contamination. Phenol Red Free Dulbecco's Modified Eagle Medium (DMEM) supplemented with 10% w/w charcoal-dextran treated fetal bovine serum (FBS) and 1% w/w pen-strep, with or without 10 ng/mL doxycycline is herein referred to as Treatment Medium. Following seeding of cells in the plates, the plates were spun at 300×g for 30 seconds, then equilibrated to room temperature for 30 minutes, and then deposited in a humidified tissue culture incubator maintained at 37° C. with 5% CO2.
# (§4) At 24 hours after seeding of the cells, dilutions of test compound were prepared in DMSO and dissolved in Treatment Medium, to achieve a final DMSO concentration of 0.5% w/w, thereby providing the Test Compound Solution. A 25 μL aliquot of the Test Compound Solution was added to cells in the well plates. An equal volume of a solution containing DMSO and Treatment Medium was used as a negative control. Following treatment of cells with Test Compound Solution or said equal volume of a solution containing DMSO and Treatment Medium, the plates were spun at 300×g for 30 seconds, and then left in an incubator for 72 hours. At the end of the treatment duration, cell viability was quantified with CellTiter-Glo 2.0 reagent (Promega Cat #G9243). For this purpose, plates were equilibrated to room temperature for 30 minutes, and then 25 μL of CellTiter-Glo 2.0 reagent was added to cells in the plate wells. Plates were then agitated on a shaker for two minutes at 500 rpm and subsequently incubated at room temperature for 10 minutes. Following incubation, the plates were spun at 3000×g for 30 seconds, then sealed with an optical adhesive cover, and luminescence readings were measured with an EnVision Plate Reader. Data was normalized using zero luminescence for baseline. A four-parameter non-linear regression curve fit was applied to dose-response data in GraphPad Prism data analysis software to determine the half-maximal growth inhibitory concentration (GI50) for each test compound.
# VCaP cells = experiment: Cellular growth inhibition assay for VCaP cells, CellTiter-Glo; assay type: cell-based, human; conditions: 72 hours treatment, CellTiter-Glo 2.0
# Experimental: VCaP cells were purchased from American Type Cell Culture (ATCC Cat #CRL2876) and then seeded on poly-D-lysine coated, black clear-bottom 384-well plates at 5000/well in 25 μL Dulbecco's Modified Eagle Medium (DMEM) supplemented with 10% w/w Fetal bovine serum (FBS) and 1% w/w Pen-Strep. Pen-Strep is a commercially available mixture of penicillin G and streptomycin, which is used in mammalian cell culture media to prevent bacterial contamination. Dulbecco's Modified Eagle Medium (DMEM) supplemented with 10% w/w fetal bovine serum (FBS) and 1% w/w Pen-Strep is herein referred to as Treatment Medium. Following seeding of cells in the plates, the plates were spun at 300×g for 30 seconds, then equilibrated to room temperature for 30 minutes, and then deposited in a humidified tissue culture incubator maintained at 37° C. with 5% CO2.
# At 24 hours after seeding of the cells, dilutions of test compound were prepared in DMSO and dissolved in Treatment Medium, to achieve a final DMSO concentration of 0.5% w/w, thereby providing the Test Compound Solution. A 25 μL aliquot of the Test Compound Solution was added to cells in the well plates. An equal volume of a solution containing DMSO and Treatment Medium was used as a negative control. Following treatment of cells with Test Compound Solution or said equal volume of a solution containing DMSO and Treatment Medium, the plates were spun at 300×g for 30 seconds, and then left in an incubator for 72 hours.
# At the end of the treatment duration, cell viability was quantified with CellTiter-Glo 2.0 reagent (Promega Cat #G9243). For this purpose, plates were equilibrated to room temperature for 30 minutes, and then 25 μL of CellTiter-Glo 2.0 reagent was added to cells in the plate wells. Plates were then agitated on a shaker for two minutes at 500 rpm and subsequently incubated at room temperature for 10 minutes. Following incubation, the plates were spun at 3000×g for 30 seconds, then sealed with an optical adhesive cover, and luminescence readings were measured with an EnVision Plate Reader.
# Data was normalized using zero luminescence for baseline. A four-parameter non-linear regression curve fit was applied to dose-response data in GraphPad Prism data analysis software to determine the half-maximal growth inhibitory concentration (GI50) for each test compound.
# [2] = test system: T-Rex 293 cell line SC3 cells having increased expression of androgen receptor protein due to exposure to doxycycline; experiment: Cellular growth inhibition, T-Rex 293 SC3 cells with doxycycline (androgen receptor induced), CellTiter-Glo; assay type: cell-based; conditions: T-Rex 293 SC3 cells with 10 ng/mL doxycycline (increased androgen receptor expression)
# Experimental: as §1, §2, §3, §4
Compound,GI50 ([1]; 72 h) [µM],"GI50 (VCaP cells; Homo sapiens, VCaP, 72 h) [µM]",GI50 ([2]; 72 h) [µM],also measured
Cc1sc2c(c1C)C(c1ccc(CC(=O)NCCc3ncc(C(=O)N[C@H]4C(C)(C)[C@H](Oc5ccc(C#N)c(Cl)c5)C4(C)C)cn3)cc1)=N[C@@H](Cc1ncco1)c1nnc(C)n1-2 [Compound I-440],> 3,0.5 to 1.5,–,"GI50 (T47D cells; Homo sapiens, T47D, 72 h): 1.5 to 3 µM"
Cc1sc2c(c1C)C(c1ccc(CC3CC(OC4CCN(c5ncc(C(=O)N[C@H]6C(C)(C)[C@H](Oc7ccc(C#N)c(Cl)c7)C6(C)C)cn5)CC4)C3)cc1)=N[C@@H](C)c1nnc(C)n1-2 (some centres unmarked) [Compound I-446],–,–,–,GI50 (T47D cells): < 0.5 µM; GI50 ([1]; 72 hours): > 3 µM; GI50 (VCaP cells): 1.5 to 3 µM
Cc1sc2c(c1C)C(c1ccc(OC[C@@H]3CCCN(c4cnc(C(=O)N[C@H]5C(C)(C)[C@H](Oc6ccc(C#N)c(Cl)c6)C5(C)C)cn4)C3)cc1)=N[C@@H](C)c1nnc(C)n1-2 [Compound I-588],> 3,–,< 0.5,"GI50 (T47D cells; Homo sapiens, T47D, 72 h): 0.5 to 1.5 µM"
Cc1sc2c(c1C)C(c1ccc(N[C@H]3CCN(c4ncc(C(=O)N[C@H]5C(C)(C)[C@H](Oc6ccc(C#N)c(Cl)c6)C5(C)C)cn4)C3)cc1)=NC(Cc1ncco1)c1nnc(C)n1-2 (some centres unmarked) [Compound I-622],< 0.5,–,< 0.5,–
Cc1sc2c(c1C)C(c1ccc(N[C@H]3CC[C@@H](Nc4ncc(C(=O)N[C@H]5C(C)(C)[C@H](Oc6ccc(C#N)c(Cl)c6)C5(C)C)cn4)CC3)cc1)=N[C@@H](Cc1ncco1)c1nnc(C)n1-2 [Compound I-623],< 0.5,–,< 0.5,–
Cc1sc2c(c1C)C(c1ccc(N3CC[C@H](Nc4ncc(C(=O)N[C@H]5C(C)(C)[C@H](Oc6ccc(C#N)c(Cl)c6)C5(C)C)cn4)C3)cc1)=N[C@@H](Cc1ncco1)c1nnc(C)n1-2 [Compound I-624],< 0.5,–,< 0.5,–
Cc1sc2c(c1C)C(c1ccc(N3CC4(CCN(c5ncc(C(=O)N[C@H]6C(C)(C)[C@H](Oc7ccc(C#N)c(Cl)c7)C6(C)C)cn5)CC4)C3)cc1)=NC(Cc1ncco1)c1nnc(C)n1-2 (some centres unmarked) [Compound I-625],> 3,–,< 0.5,–
Cc1sc2c(c1C)C(c1ccc(N3CCC(C)(Nc4ncc(C(=O)N[C@H]5C(C)(C)[C@H](Oc6ccc(C#N)c(Cl)c6)C5(C)C)cn4)CC3)cc1)=N[C@@H](Cc1ncco1)c1nnc(C)n1-2 [Compound I-626],> 3,–,< 0.5,–
Cc1sc2c(c1C)C(c1ccc(NCCC3CCN(c4ncc(C(=O)N[C@H]5C(C)(C)[C@H](Oc6ccc(C#N)c(Cl)c6)C5(C)C)cn4)CC3)cc1)=NC(Cc1ncco1)c1nnc(C)n1-2 (some centres unmarked) [Compound I-627],< 0.5,–,< 0.5,–
Cc1sc2c(c1C)C(c1ccc(N3CC(N4CCN(c5ncc(C(=O)N[C@H]6C(C)(C)[C@H](Oc7ccc(C#N)c(Cl)c7)C6(C)C)cn5)CC4)C3)cc1)=NC(Cc1ncco1)c1nnc(C)n1-2 (some centres unmarked) [Compound I-628],–,–,< 0.5,GI50 ([1]; 72 hours): > 3 µM
Cc1sc2c(c1C)C(c1ccc(NC3C[C@@H]4CCC[C@@H](C3)N4c3ncc(C(=O)N[C@H]4C(C)(C)[C@H](Oc5ccc(C#N)c(Cl)c5)C4(C)C)cn3)cc1)=N[C@@H](Cc1ncco1)c1nnc(C)n1-2 (some centres unmarked) [Compound I-629],–,–,–,GI50 ([1]; 72 hours): > 3 µM; GI50 ([2]; 72 hours): < 0.5 µM
Cc1sc2c(c1C)C(c1ccc(N[C@H]3CCN(c4ncc(C(=O)N[C@H]5C(C)(C)[C@H](Oc6ccc(C#N)c(Cl)c6)C5(C)C)cn4)C[C@@H]3F)cc1)=NC(Cc1ncco1)c1nnc(C)n1-2 (some centres unmarked) [Compound I-630],< 0.5,–,< 0.5,–
Cc1sc2c(c1C)C(c1ccc(N3[C@@H]4CC[C@H]3C[C@@H](Nc3ncc(C(=O)N[C@H]5C(C)(C)[C@H](Oc6ccc(C#N)c(Cl)c6)C5(C)C)cn3)C4)cc1)=N[C@@H](Cc1ncco1)c1nnc(C)n1-2 [Compound I-631],–,–,–,GI50 ([1]; 72 hours): > 3 µM; GI50 ([2]; 72 hours): < 0.5 µM
Cc1sc2c(c1C)C(c1ccc(N3CCC4(CCCN(c5ncc(C(=O)N[C@H]6C(C)(C)[C@H](Oc7ccc(C#N)c(Cl)c7)C6(C)C)cn5)C4)C3)cc1)=N[C@@H](Cc1ncco1)c1nnc(C)n1-2 (some centres unmarked) [Compound I-632],> 3,–,< 0.5,–
Cc1sc2c(c1C)C(c1ccc(NCC3CC4(C3)CN(c3ncc(C(=O)N[C@H]5C(C)(C)[C@H](Oc6ccc(C#N)c(Cl)c6)C5(C)C)cn3)C4)cc1)=N[C@@H](Cc1ncco1)c1nnc(C)n1-2 [Compound I-660],< 0.5,< 0.5,–,"GI50 (T47D cells; Homo sapiens, T47D, 72 h): < 0.5 µM"
Cc1sc2c(c1C)C(c1ccc(NCCN3CCN(c4ncc(C(=O)N[C@H]5C(C)(C)[C@H](Oc6ccc(C#N)c(Cl)c6)C5(C)C)cn4)CC3)cc1)=NC(Cc1ncco1)c1nnc(C)n1-2 (some centres unmarked) [Compound I-661],< 0.5,< 0.5,–,–
Cc1sc2c(c1C)C(c1ccc(N3CCC[C@@H](CNc4ncc(C(=O)N[C@H]5C(C)(C)[C@H](Oc6ccc(C#N)c(Cl)c6)C5(C)C)cn4)C3)cc1)=NC(Cc1ncco1)c1nnc(C)n1-2 (some centres unmarked) [Compound I-662],0.5 to 1.5,< 0.5,–,–
Cc1sc2c(c1C)C(c1ccc(N[C@H]3CC[C@H](Nc4ncc(C(=O)N[C@H]5C(C)(C)[C@H](Oc6ccc(C#N)c(Cl)c6)C5(C)C)cn4)CC3)cc1)=N[C@@H](Cc1ncco1)c1nnc(C)n1-2 [Compound I-663],< 0.5,< 0.5,–,–
Cc1sc2c(c1C)C(c1ccc(N3C[C@H](F)C[C@@H](Nc4ncc(C(=O)N[C@H]5C(C)(C)[C@H](Oc6ccc(C#N)c(Cl)c6)C5(C)C)cn4)C3)cc1)=NC(Cc1ncco1)c1nnc(C)n1-2 (some centres unmarked) [Compound I-664],< 0.5,< 0.5,–,–
Cc1sc2c(c1C)C(c1ccc(N3C[C@H]4C[C@@H]3CN4c3ncc(C(=O)N[C@H]4C(C)(C)[C@H](Oc5ccc(C#N)c(Cl)c5)C4(C)C)cn3)cc1)=NC(Cc1ncco1)c1nnc(C)n1-2 (some centres unmarked) [Compound I-665],< 0.5,< 0.5,–,–
